Legend:
[1] = tested on: formation of gastric lesions; assay: Antiulcerogenic action in Shay rats: protective action on the stomach (lesion index after pylorus ligature and oral acetylsalicylic acid); assay type: in vivo; conditions: rat, p.o., pylorus ligature (4 hours; Shay rat) + 100 mg/kg acetylsalicylic acid, dose reducing lesion index by 50% vs control, read-out: Protective action on the stomach (rat) inhibition of the lesion index ED50
Protocol: (§1) The compounds according to the invention investigated appear in the following table:
(§2) The influence of the compounds investigated on the formation of gastric lesions triggered by pylorus ligature (4 hours; Shay rat) and oral administration of 100 mg/kg of acetylsalicylic acid on the inhibition of gastric secretion (HCl) in rats during 4 hours is shown in the following table:
(§3) The antiulcerogenic action was tested in Shay rats:
(§4) Ulcers were provoked in rats which had fasted for 24 hours (female, 180-200 g, 4 animals per cage on a high grid) by pylorus ligature (under diethyl ether anesthesia) and oral administration of 100 mg/10 ml/kg of acetylsalicylic acid. The substances to be tested are administered orally (10 ml/kg) one hour before the pylorus ligature. The wound is closed by means of Michel clamps. 4 hours thereafter, the animals are sacrificed under ether anesthesia by atlas dislocation and the stomach is resected. The stomach is opened longitudinally and fixed to a cork plate, after first determining the amount of secreted gastric juice (volume) and later its HCl content (titration with sodium hydroxide solution). The number and size (=diameter) of ulcers present are determined with a stereomicroscope with 10-fold magnification. The product of the degree of severity (according to the following points scale) and number of ulcers serves as the individual lesion index.
ulcer diameter 0.1-1.4 mm
(§5) The reduction in the average lesion index of each treated group compared with that of the control group (=100%) serves as a measure of the antiulcerogenic effect.

[2] = tested on: HCl secretion in the stomach; assay: Inhibition of gastric secretion (HCl) in the stomach of the Shay rat over 4 hours; assay type: in vivo; conditions: total of 4 hours; for ED25 / ED50: po; for ED25: dose reducing HCl secretion by 25% vs control; for ED50: dose reducing HCl secretion by 50% vs control; for % inhibition of HCl secretion: after administration of the antiulcerous ED50
Protocol: as §1, §2
ED25+ and ED50+ = dose which reduces the lesion index and the HCL
secretion (over 4 hours) in the rat stomach by 25% and 50% in the treated
group in comparison with the control group.
(++) = after administration of the antiulcerous ED50
as §3, §4, §5

COc1cnc(C[S+]([O-])c2nc3cc(OC(F)(F)F)ccc3[nH]2)cc1OC (centres unmarked) [Serial No. 1, 2-[(4,5-Dimethoxy-2-pyridyl)methylsulfinyl]-5-trifluoromethoxy-1H-benzimidazole] gave an ED50 [1] of 0.6 mg/kg, an ED25 [2] of 1 mg/kg and an ED50 [2] of about 3 mg/kg. The “% inhibition of HCl secretion” value [2] was 15%.

COc1cnc(CSc2nc3cc4c(cc3[nH]2)OC(F)(F)O4)cc1OC [Serial No. 4, 2,2-difluoro-6-[(4,5-dimethoxy-2-pyridyl)methylthio]-5H-[1,3]-dioxolo[4,5-f]benzimidazole] was tested, and the ED50 [1] was 3.5 mg/kg, the ED25 [2] was 3 mg/kg and the ED50 [2] was 6.5 mg/kg. The “% inhibition of HCl secretion” value [2] was 28%.

COc1cnc(C[S+]([O-])c2nc3cc(OC(F)(F)F)ccc3[nH]2)c(C)c1OC (centres unmarked) [Serial No. 2, 2-[(4,5-Dimethoxy-3-methyl-2-pyridyl)methylsulfinyl]-5-trifluoromethoxy-1H-benzimidazole] showed an ED50 [1] of 0.8 mg/kg, an ED25 [2] of 0.7 mg/kg and an ED50 [2] of 1.7 mg/kg. The “% inhibition of HCl secretion” value [2] was 25%.

COc1cnc(C[S+]([O-])c2nc3cc4c(cc3[nH]2)OC(F)(F)O4)cc1OC (centres unmarked) [Serial No. 5, 2,2-Difluoro-6-[(4,5-dimethoxy-2-pyridyl)methylsulfinyl]-5H-[1,3]-dioxolo[4,5-f]benzimidazole] showed an ED50 [1] of about 1 mg/kg, an ED25 [2] of 1 mg/kg and an ED50 [2] of 3 mg/kg. The “% inhibition of HCl secretion” value [2] was 25%.

In the case of COc1cnc(C[S+]([O-])c2nc3cc(OC(F)(F)C(F)F)ccc3[nH]2)cc1OC (centres unmarked) [Serial No. 3, 2-[(4,5-dimethoxy-2-pyridyl)methylsulfinyl]-5-(1,1,2,2-tetrafluoroethoxy)-1H-benzimidazole], the ED50 [1] is reported as 0.6 mg/kg, the ED25 [2] is reported as about 1 mg/kg and the ED50 [2] is reported as 3.4 mg/kg. The “% inhibition of HCl secretion” value [2] was 18%.

— US4758579A, “Fluoroalkoxy substituted benzimidazoles useful as gastric acid secretion inhibitors” (BYK Gulden Lomberg Chemische Fabrik GmbH, priority 1984, dated 1988)
